In article PMC9950143 (Scientific Reports, 2023):

Assays:
[1] = system: Dengue 2 virus (RL); experiment: microbe, parasite or virus in culture; type: cell-based
[2] = system: Enterovirus 68D; conditions: listed as Enterovirus 68D; different cells and/or assay protocols; read-out: Previously reported activity EC50; cited from earlier work
[3] = Cell toxicity, CellTiter-Glo, in HBV assay; conditions: human, PHH cells (HBV assay)
[4] = Cytotoxicity by nuclei count in HDV assay; conditions: human, Huh7-NTCP cells (HDV assay)
[5] = system: hepatitis E virus (GT3-Kernow C1 p6/Luciferase replicon); experiment: HEV replicon Gaussia luciferase assay, Huh-7; type: cell-based; conditions: Hepatitis E GT3 Kernow C1 p6/Luc replicon [Huh-7]
[6] = system: West Nile (NY99); experiment: microbe, parasite or virus in culture; type: cell-based, West Nile virus
[7] = Cytotoxicity in HBV assay; conditions: human, HepG2-NTCP cells (clone HY12), HBV-infected
[8] = system: Ebola virus (Kikwit); experiment: microbe, parasite or virus in culture; type: cell-based
[9] = system: Japanese encephalitis (14–14-2); experiment: microbe, parasite or virus in culture; type: cell-based; conditions: Japanese encephalitis (14–14-2) [Huh-7]
[10] = system: Ebola virus (Mayinga); experiment: microbe, parasite or virus in culture; type: cell-based
[11] = system: Human Coronavirus OC43 (HCoV-OC43); experiment: HCoV-OC43 anti-nucleoprotein ELISA antiviral assay, Huh-7 cells; type: cell-based; conditions: OC43 [Huh-7]
[12] = system: Marburg (Musoke); experiment: microbe, parasite or virus in culture; type: cell-based, Marburg virus
[13] = system: Bundibugyo virus; experiment: microbe, parasite or virus in culture; type: cell-based
[14] = Multiplex cytotoxicity (calcein AM) in HCV replicon assay; conditions: human, Huh-7-lunet HCV genotype 1b replicon cells
[15] = in vitro; conditions: human
[16] = system: Influenza B (B/Brisbane/60/2008); experiment: CPE assay, MDCK cells; type: cell-based; conditions: Influenza B virus; Influenza B (B/Brisbane/60/2008) [MDCK]; read-out: Antiviral activity EC50
[17] = system: HDV genotype 1 virus; experiment: HDV infection assay (HDAg immunofluorescence), Huh7-NTCP cells; type: cell-based, hepatitis delta virus; conditions: Hepatitis D (Huh7-NTCP)
[18] = system: SUDV Boniface; experiment: microbe, parasite or virus in culture; type: cell-based, Sudan virus; conditions: Sudan ebolavirus, HeLa; n = 9; read-out: RDV activity against SUDV EC50
[19] = system: Yellow fever virus (17D); experiment: microbe, parasite or virus in culture; type: cell-based
[20] = system: DENV; experiment: microbe, parasite or virus in culture; type: cell-based; conditions: Dengue virus, Huh-7, read-out: EC50 range against DENV
[21] = system: Yellow fever virus (YFS11); experiment: microbe, parasite or virus in culture; type: cell-based
[22] = system: Dengue 1 virus (Western Pacific); experiment: microbe, parasite or virus in culture; type: cell-based; conditions: Dengue 1 virus (Western Pacific) [Huh-7]
[23] = system: H1 HeLa cells; experiment: Compound cytotoxicity by MTS dye reduction; conditions: H1 HeLa
[24] = Compound cytotoxicity by MTS dye reduction; conditions: human, H1 HeLa cells
[25] = system: OC43; conditions: different cells and/or assay protocols, read-out: Previously reported activity EC50; cited from earlier work
[26] = Compound cytotoxicity by MTS dye reduction; conditions: human, RD cells
[27] = system: Ravn Virus; experiment: microbe, parasite or virus in culture; type: cell-based
[28] = system: Zika virus (MR766); experiment: microbe, parasite or virus in culture; type: cell-based
[29] = system: Rhinovirus 14; experiment: CPE assay, H1 HeLa cells; type: cell-based; conditions: Rhinovirus 14 [H1 HeLa]
[30] = system: Huh-7 cells; conditions: human
[31] = system: Marburg (Nganda); experiment: microbe, parasite or virus in culture; type: cell-based, Marburg virus
[32] = Cytotoxicity, CellTiter-Glo, 72 h (OC43 protocol); conditions: human, Huh-7 cells
[33] = system: HCV 1b replicon; conditions: Hepatitis C (1b) replicon; read-out: Previously reported activity EC50; cited from earlier work
[34] = system: Sudan virus (Boneface); experiment: microbe, parasite or virus in culture; type: cell-based
[35] = system: Enterovirus 71; experiment: CPE assay, RD cells; type: cell-based; conditions: Enterovirus 71 [RD]
[36] = Multiplex cytotoxicity (calcein AM) in HCV replicon assay; conditions: human, Huh-7-lunet HCV genotype 2a replicon cells
[37] = system: HCV genotype 1b and 2a; experiment: HCV subgenomic replicon assay (summary of both genotypes); type: cell-based; conditions: Hepatitis C virus; genotype 1b and 2a subgenomic replicon; read-out: EC50 against replicons of both HCV genotypes
[38] = Zaire ebolavirus, HeLa, read-out: Antiviral activity EC50
[39] = Filoviridae, HeLa, read-out: Antiviral activity EC50

In the case of `CCC(CC)COC(=O)[C@H](C)N[P@](=O)(OC[C@H]1O[C@@](C#N)(c2ccc3c(N)ncnn23)[C@H](O)[C@@H]1O)Oc1ccccc1` [RDV, Remdesivir], the “Selectivity index (SI) = CC50/EC50” value [1] is listed as 115, the EC50 ([1]; Dengue virus, Huh-7, read-out: Antiviral activity EC50) is listed as 290 ± 70 nM and the EC50 [2] is listed as 100 to 1000 nM. The CC50 [3] was > 1000 nM, the CC50 [4] was 8000 to 10000 nM and the “Selectivity index (SI)” value [5] was “Low (When minimal RDV antiviral activity is observed for a particular virus, low SI is indicated)”. For the same compound, the EC50 ([5]; Hepatitis E virus, read-out: Antiviral activity EC50) was > 2070 nM, the “Selectivity index (SI) = CC50/EC50” value [6] was 668 and the EC50 ([6]; West Nile virus, Huh-7, n = 1, read-out: Antiviral activity EC50) was 50 nM. For the same compound, the CC50 at 5 days [7] was 7400 nM, the “Selectivity index (SI) = CC50/EC50” value [8] was > 36 and the EC50 [8, 38] was 70 ± 8 nM. The “Selectivity index (SI) = CC50/EC50” value [9] was 98, the EC50 ([9]; Japanese encephalitis virus, n = 1, read-out: Antiviral activity EC50) was 340 nM and the “Selectivity index (SI) = CC50/EC50” value [10] was > 18. The EC50 [10, 38] was 136 ± 17 nM, the EC50 ([11]; Betacoronavirus 1) was 67 ± 5 nM and the “Selectivity index (SI) = CC50/EC50” value [11] was 282. The “Selectivity index (SI) = CC50/EC50” value [12] was > 63, the EC50 [12, 39] was 40 ± 4 nM and the “Selectivity index (SI) = CC50/EC50” value [13] was > 53. The EC50 ([13]; Bundibugyo virus, HeLa, read-out: Antiviral activity EC50) was 190 ± 20 nM, the CC50 [14] was > 20000 nM and the CC50 at 48 h [15] was > 2500 nM. For the same compound, the CC50 ([15]; RDV CC50 (SUDV assay)) was > 2500 nM, the EC50 [16] was > 50000 nM and the “Selectivity index (SI)” value [17] was “Low (When minimal RDV antiviral activity is observed for a particular virus, low SI is indicated)”. For the same compound, the EC50 ([17]; Hepatitis delta virus, read-out: Antiviral activity EC50) was > 5000 nM, the EC50 [18] was 308 nM and the “Selectivity index (SI) = CC50/EC50” value [19] was 186. For the same compound, the EC50 ([19]; Yellow fever virus, Huh-7, read-out: Antiviral activity EC50) was 180 ± 30 nM, the EC50 [20] was 120 to 230 nM and the “Selectivity index (SI) = CC50/EC50” value [21] was 32. The EC50 ([21]; Yellow fever virus, Huh-7, n = 1, read-out: Antiviral activity EC50) was 1060 nM, the “Selectivity index (SI) = CC50/EC50” value [22] was 159 and the EC50 ([22]; n = 1, read-out: Antiviral activity EC50) was 210 nM. The CC50 ([23]; listed as Rhinovirus 14) was > 10000 nM, the CC50 ([23]; listed as Rhinovirus 16) was > 10000 nM and the CC50 [24] was > 10000 nM. For the same compound, the EC50 [25] was 96 to 150 nM, the CC50 ([26]; listed as Enterovirus 68D) was 2820 nM and the CC50 ([26]; listed as Enterovirus 71) was 3310 nM. For the same compound, the “Selectivity index (SI) = CC50/EC50” value [27] was > 37, the EC50 [27, 39] was 68 ± 10 nM and the “Selectivity index (SI) = CC50/EC50” value [28] was 29. For the same compound, the EC50 ([28]; Zika virus, Huh-7, read-out: Antiviral activity EC50) was 1150 ± 30 nM, the EC50 ([29]; Enterovirus, read-out: Antiviral activity EC50) was 385 ± 318 nM and the “Selectivity index (SI) = CC50/EC50” value [29] was > 26. For the same compound, the “concentration at which cytotoxicity was observed” value [30] was “approximately 4 µM”, the “Selectivity index (SI) = CC50/EC50” value [31] was > 104 and the EC50 [31, 39] was 24 ± 4 nM. For the same compound, the CC50 at 72 h [32] was 18900 ± 1800 nM, the EC50 [33] was 57 nM and the “Selectivity index (SI) = CC50/EC50” value [34] was > 21. The EC50 ([34]; Sudan ebolavirus, HeLa, n = 1, read-out: Antiviral activity EC50) was 120 nM, the “Selectivity index (SI) = CC50/EC50” value [35] was 24 and the EC50 ([35]; Enterovirus A, n = 1, read-out: Antiviral activity EC50) was 140 nM. The CC50 [36] was 17000 ± 3000 nM and the EC50 [37] was 72 to 89 nM.
